# In publication PMC11380953, “Multivalent, calcium-independent binding of surfactant protein A and D to sulfated glycosaminoglycans of the alveolar epithelial glycocalyx” (American Journal of Physiology - Lung Cellular and …, 2024):
# Read-outs that look alike come from different tables or passages of the source.
# Columns and labels:
# [1] = biological target: T1, hSP-A (human SP-A, isolated from BAL of PAP patient) (Homo sapiens, UniProt Q8IWL1+Q8IWL2); assay: Microscale thermophoresis (MST) binding to hSP-A; design: Response Amplitude: unit not given here; conditions: for binding of hSP-A in the absence or presence of low calcium concentrations: 0 and 2.5 mM calcium (Fig. 3A-C); for Response Amplitude / Kd: hSP-A
# T1 construct: Human PAP patient, BAL isolated; from tissue; host or cells: bronchoalveolar lavage fluid of a patient with pulmonary alveolar proteinosis
# T1 sequence (Q8IWL2 21-248): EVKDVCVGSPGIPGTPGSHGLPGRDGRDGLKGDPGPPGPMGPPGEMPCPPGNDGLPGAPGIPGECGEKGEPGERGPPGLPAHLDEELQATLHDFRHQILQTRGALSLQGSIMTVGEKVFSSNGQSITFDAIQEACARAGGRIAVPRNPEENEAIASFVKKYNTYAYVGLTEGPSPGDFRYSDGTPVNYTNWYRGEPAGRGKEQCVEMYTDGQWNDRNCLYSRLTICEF
# T1 sequence (Q8IWL1 21-248): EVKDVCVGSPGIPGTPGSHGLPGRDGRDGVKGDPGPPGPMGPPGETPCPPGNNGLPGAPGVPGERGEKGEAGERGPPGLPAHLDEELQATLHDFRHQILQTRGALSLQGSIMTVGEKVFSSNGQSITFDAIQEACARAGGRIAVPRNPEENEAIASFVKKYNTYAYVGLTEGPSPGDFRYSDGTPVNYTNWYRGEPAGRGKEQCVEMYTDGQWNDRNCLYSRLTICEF
# Protocol: (§1) Human-isolated and recombinant proteins were labeled using the Monolith Protein Labeling Kit RED-NHS according to the manufacturer’s instructions. This kit reagent reacts with lysine residues present in the sequence of the protein, as the dye carries a reactive NHS-ester group. Briefly, as all the proteins were in a Tris buffer solution, the buffer solution was exchanged to a HEPES-based buffer with the A-Column provided in the kit. Then, 10 µM solution of protein was incubated with a threefold excess of dye in 100 µL for 30 min at room temperature protected from light. The labeled protein was separated from the free dye using the B-Column provided in the kit. The concentration of the labeled protein {c(M) = [A205 − (A650 × 0.19)]/[31 × MWprotein]) and the degree of labeling [DOL = A650/(195.000 M^−1cm^−1 × c(M)] were calculated according to the manufacturer’s instruction, measuring absorption at 205 nm (for the protein) and 650 nm (for the dye).
# (§2) Thermophoresis is the phenomenon of movement of particles along a temperature gradient. Solvated molecules move from higher to lower temperature. This movement or depletion of molecules from the heat is quantified by the Soret coefficient ST: Chot/Ccold = exp (−STΔT). The depletion of molecules depends on the interface between molecule and solvent. Therefore, thermophoresis monitors changes in size, charge, and solvation entropy of molecules. In this regard, the thermophoresis or movement of a protein is different from a protein-ligand complex ([35]). Microscale or miniaturized thermophoresis allows to monitor molecular interaction in only a few microliters. For this method, the fluorescently labeled protein is mixed with a decreasing concentration of a ligand in 16 glass capillaries. The initial fluorescence is measured (Fcold), then an infrared (IR) laser beam is switched on and focused on the center of the first capillary, where the temperature gradient is created from the center to the walls of the capillary. At the same time, a dichroic mirror allows fluorescence from the labeled protein to be monitored (Fhot). The rate of fluorescence change is related to the amount of protein-ligand complex form, which depends on the ligand concentration, due to changes in size, charge, or hydration shell of the protein-ligand complex. The dissociation constant KD is calculated from the binding curve derived by plotting the normalized fluorescence (FNorm) at a given time after the start of the thermophoresis against the respective ligand concentration ([33], [34], [36]).
# (§3) Samples were measured in a Monolith NT.115, using Premium Capillaries (MO-K025) and Monolith Protein labeling kit RED-NHS (MO-L011) all from NanoTemper Technologies (Munich, Germany). Solutions of a 3X concentrated MST buffer (15 mM Tris, 300 mM NaCl, 0.3% Tween 20, 15 mM CaCl2, pH 7.4), sugars (270 mM) or GAG (30 µM) solution, and protein solution (27 nM) were prepared separately. When a different concentration was used, a threefold concentration of the solution was prepared. Afterward, sugars and GAG solutions were diluted 1:2 with water in a series of 16 steps. For the measurement, 3 µL of each prepared component (3 µL MST buffer, 3 µL GAG solution, and 3 µL labeled protein) was mixed, centrifuged shortly to eliminate precipitates, and loaded into a glass capillary. The final concentrations of the sugars were thus between 90 –and 0.00275 mM or GAGs 10 and 0.000305 µM for GAGs, respectively. The 16 capillaries were loaded in the Monolith NT.115 and measurements were performed with a 40% LED power and medium MST power at 25°C.
# (§4) Every set of 16 capillaries was prepared in 3–6 replicates (technical replicates) and measured. The replicate measures of every capillary were plotted against concentration and outliers were excluded, using the MO Affinity Analysis 3 v01 software (NanoTemper Technologies, Munich, Germany). […]
# [2] = biological target: T2, recSP-A1 (human recombinant SP-A1) (Homo sapiens, UniProt Q8IWL2); assay: Microscale thermophoresis (MST) binding to recSP-A1; conditions: for Kd: recSP-A1, GAGs from Fig. 2, read-out: Kd (±KD Confidence); for Response Amplitude: recSP-A1, MST, GAGs from Fig. 2
# T2 construct: purchased Aviva Systems Biology OPCD07130; host or cells: prokaryotic expression
# T2 sequence (Q8IWL2 21-248): as the sequence (Q8IWL2 21-248) above
# Protocol: as §1, §2, §3, §4
# [3] = biological target: T3, hSP-D (human SP-D, isolated from BAL of PAP patient) (Homo sapiens, UniProt P35247); assay: Microscale thermophoresis (MST) binding to hSP-D; conditions: for Kd: GAGs from Fig. 2, read-out: Kd (±KD Confidence); for Response Amplitude: MST, GAGs from Fig. 2
# T3 construct: hSP-D; 0.6 µM; Human PAP patient, BAL isolated; from tissue; host or cells: bronchoalveolar lavage fluid of a patient with pulmonary alveolar proteinosis
# T3 sequence (P35247 21-375): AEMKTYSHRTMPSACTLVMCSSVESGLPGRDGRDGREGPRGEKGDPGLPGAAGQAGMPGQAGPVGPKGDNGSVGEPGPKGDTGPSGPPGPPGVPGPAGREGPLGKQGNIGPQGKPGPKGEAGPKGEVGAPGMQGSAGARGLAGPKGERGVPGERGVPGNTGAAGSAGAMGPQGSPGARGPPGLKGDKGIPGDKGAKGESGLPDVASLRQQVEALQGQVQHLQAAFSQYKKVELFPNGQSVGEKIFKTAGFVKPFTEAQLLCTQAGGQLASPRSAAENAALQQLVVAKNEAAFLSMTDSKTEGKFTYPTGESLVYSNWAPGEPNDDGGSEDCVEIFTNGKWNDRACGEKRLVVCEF
# Protocol: as §1, §2, §3, §4
# [4] = GAGs from Fig. 2, read-out: Kd (±KD Confidence)
substance,measurement,setting,value
chondroitin sulfate sodium salt [CS],binding of hSP-A in the absence or presence of low calcium concentrations,[1]; MST,binds
same,Response Amplitude,[1]; 0 mM Ca^2+,7.16
same,Kd,"[1]; 0 mM Ca^2+, read-out: KD",0.999 nM
same,Response Amplitude,[1]; 2.5 mM Ca^2+,13.45
same,Response Amplitude,[1]; 5 mM Ca^2+,8.07
same,Kd,"[1]; 5 mM Ca^2+, read-out: KD",7.38 nM
same,Response Amplitude,[1]; 10 mM Ca^2+,6.89
same,Kd,"[1]; 10 mM Ca^2+, read-out: KD",5.91 nM
same,Kd,[1]; [4],225 nM
same,Response Amplitude,"[1]; MST, GAGs from Fig. 2",8.37
same,Kd,[2],80.1 nM
same,Response Amplitude,[2],17.02
same,Kd,[3],5820 nM
same,Response Amplitude,[3],3.74
hyaluronic acid sodium salt [HA],binding of hSP-A in the absence or presence of low calcium concentrations,[1]; MST,not able to bind
same,Response Amplitude,[1]; 5 mM Ca^2+,7.31
same,Kd,"[1]; 5 mM Ca^2+, read-out: KD",2.91 nM
same,Response Amplitude,[1]; 10 mM Ca^2+,3.65
same,Kd,"[1]; 10 mM Ca^2+, read-out: KD",54.6 nM
same,Kd,[1]; [4],12.2 nM
same,Response Amplitude,"[1]; MST, GAGs from Fig. 2",12.93
same,Kd,[2],1010 nM
same,Response Amplitude,[2],17.13
same,Kd,[3],2190 nM
same,Response Amplitude,[3],3.45
heparan sulfate sodium [HS],binding of hSP-A in the absence or presence of low calcium concentrations,[1]; MST,binds
same,Response Amplitude,[1]; 0 mM Ca^2+,3.61
same,Kd,"[1]; 0 mM Ca^2+, read-out: KD",3.22 nM
same,Response Amplitude,[1]; 2.5 mM Ca^2+,9.27
same,Kd,"[1]; 2.5 mM Ca^2+, read-out: KD",0.188 nM
same,Response Amplitude,[1]; 5 mM Ca^2+,7.51
same,Kd,"[1]; 5 mM Ca^2+, read-out: KD",3.74 nM
same,Response Amplitude,[1]; 10 mM Ca^2+,2.79
same,Kd,"[1]; 10 mM Ca^2+, read-out: KD",375 nM
same,Kd,[1]; [4],23.3 nM
same,Response Amplitude,"[1]; MST, GAGs from Fig. 2",11.92
same,Kd,[2],269 nM
same,Response Amplitude,[2],15.51
same,Kd,[3],5640 nM
same,Response Amplitude,[3],3.03
